According to US6063814A, “Phorbol esters as anti-neoplastic and white blood cell elevating agents” (priority 1997, dated 2000):
Where “and” joins values, the source holds several entries; their conditions need not be identical. Identical values can stand only once.

Test system: leukemia (bone marrow myeloblast and promyelocyte)
Assay: Clinical treatment of leukemia patients with TPA
Format: in vivo, humans
Conditions: for bone marrow suppression, infection or bleeding: during and after treatment; for Spleen below the rib cage after treatment: 3 cm before
Experimental: The results obtained upon treatment of patients with TPA as presented in tabular form and in subsequent examples.
In the subjects identified as (1) through (5) below, chronic myelocytic leukemia had progressed to acute myelocytic leukemia before treatment with TPA.
Subject No. (1), patient No. 28879. Blood profile before TPA treatment: Hb: 28 g/L; WBC: 1.0×10^9 /L, platelet: 135×10^9 /L. Bone marrow profile before TPA treatment: myeloblast+promyelocyte: 30%. TPA treatment: 1 mg/week (0.25 mg administered four times) for two weeks. Blood profile after treatment: Hb: 86 g/L; WBC: 2.8×10^9 /L, platelet: 283×10^9 /L. Bone marrow profile after TPA treatment: myeloblast+promyelocyte: 2.5%.
Subject No. (2), patient No. 29926. Diagnosis: chronic myelocytic leukemia became acute myelocytic leukemia before treatment. Blood profile before TPA treatment: Hb: 94 g/L; WBC: 9.8×10^9 /L, platelet: 63×10^9 /L. Spleen: 3 cm below the rib cage. Bone marrow profile before TPA treatment: myeloblast+promyelocyte: 36%. TPA treatment: 1 mg/week for 5 weeks. Blood profile after treatment: Hb: 104 g/L; WBC: 4.9×10^9 /L, platelet: 80×10^9 /L. Spleen: 0.5 cm below the rib cage. Bone marrow profile after TPA treatment: myeloblast+promyelocyte: 3%.
Subject No. (3), patient No. 18102. Diagnosis: chronic myelocytic leukemia became acute myelocytic leukemia before treatment. Blood profile before TPA treatment: Hb: 70 g/L; WBC: 27.5×10^9 /L, platelet: 21×10^9 /L. Bone marrow profile before TPA treatment: myeloblast+promyelocyte: 90%. TPA treatment: 1 mg/week for 7 weeks. Blood profile after treatment: Hb: 96 g/L; WBC: 22×10^9 /L, platelet: 70×10^9 /L. Bone marrow profile after TPA treatment: myeloblast+promyelocyte: 2%.
Subject No. (4), patient No. 21315. Diagnosis: chronic myelocytic leukemia became acute myelocytic leukemia before treatment. Blood profile before TPA treatment: Hb: 87 g/L; WBC: 19×10^9 /L, platelet: 150×10^9 /L. Bone marrow profile before TPA treatment: myeloblast+promyelocyte: 67.5%. TPA treatment: 1 mg/week for 7 weeks. Blood profile after treatment: Hb: 45 g/L; WBC: 53.5×10^9 /L, platelet: 210×10^9 /L. Bone marrow profile after TPA treatment: myeloblast+promyelocyte: 4.5%.
Subject No. (5), patient No. 23965. Diagnosis: chronic myelocytic leukemia progressed to acute myelocytic leukemia. Blood profile before TPA treatment: Hb: 84 g/L; WBC: 36.6×10^9 /L, platelet: 290×10^9 /L. Bone marrow profile before TPA treatment: myeloblast+promyelocyte: 27.5%. TPA treatment: 1 mg/week for 2 weeks. Blood profile after treatment: Hb: 84 g/L; WBC: 27.3×10^9 /L, platelet: 170×10^9 /L. Bone marrow profile after TPA treatment: myeloblast+promyelocyte: 1.5%.
All the above patients had received various regimens of chemotherapy prior to the TPA treatment, including hydroxyurea, busulfan, and Ara-C, etc. but none was effective at the start of TPA treatment. Before the administration of TPA, patients received injection of 6×10^5 units of vitamin D3 (VD3)/person for 2 days; after the TPA administration, patients received i.v. infusion of 40 mg of Ara-C/d×3. […] These patients have been in clinical remission for over 6 months.
Subject No. (6), person. Diagnosed as AML-M3. Symptoms began in January, 1995. Blood profile: Hb:60 g/L, WBC: 0.4×10^9 /L, platelet: 40×10^9 /L. Bone marrow profile: myeloblast+promyelocyte: 48%. The TPA treatment period was 1 mg/week for three weeks, and 6×10^5 units VD3 /d×3 were injected prior to the treatment. […] The patient has been in remission after treatment for at least 6 months.
Subject No. (7), person. Diagnosis: MDS-REAB accompanied by an increased number of monocytes. […] The patient started to receive a combination treatment of 1,25-(OH)2 VD3 +TPA+low dose Ara-C. TPA dosage: 0.25-0.5 mg (1 mg per week) for eleven weeks. […]

[1] = subject 6, AML-M3, TPA 1 mg/week three weeks, VD3 prior
[2] = subject 7, MDS-REAB, 1,25-(OH)2 VD3+TPA+low dose Ara-C, eleven weeks
[3] = subject 7, combination with 1,25-(OH)2 VD3 and Ara-C
[4] = subject 7, combination with 1,25-(OH)2 VD3 and Ara-C, blood
[5] = subject 8, AML-M3, retinoic acid failed
[6] = subject 9, secondary aplastic anemia, TPA 0.25 mg×2
[7] = subject 10, CML, TPA 0.25 mg once
[8] = subject 10, CML, TPA 0.25 mg once, second day
[9] = subjects 1-5, VD3 before, Ara-C after TPA

## CCCCCCCCCCCCCC(=O)O[C@@H]1[C@@H](C)[C@@]2(O)[C@@H](C=C(CO)C[C@]3(O)C(=O)C(C)=C[C@@H]23)[C@@H]2C(C)(C)[C@]12OC(C)=O [TPA, Phorbol 12-Myristate-13-Acetate]
CML progressed to AML, TPA 1 mg/week for 2-7 weeks, VD3 before, Ara-C after
  Bone marrow myeloblast+promyelocyte after TPA treatment: 2.5% and 3% and 2% and 4.5% and 1.5%
Many of the patients, from first treatment
  duration of clinical remission: over six months
Refractory leukemia patients
  clinical remission: clinical remission was achieved in a relatively short time
  bone marrow suppression, infection or bleeding: no bone marrow suppression, infection or bleeding
Subject 2, TPA 1 mg/week for 5 weeks
  Spleen below the rib cage after treatment: 0.5 cm
Subject 6, AML-M3
  duration of remission: at least 6 months
  remission: met the standard for AML-M3 remission
[1]
  Bone marrow myeloblast+promyelocyte after first treatment period: 3%
  Hb after first treatment period: 118 g/L
  WBC after first treatment period: 4.1e+09 L⁻¹
  platelet after first treatment period: 8e+10 L⁻¹
[2]
  Hb after treatment: 42 g/L
  WBC after treatment: 1.02e+10 L⁻¹
  platelet after treatment: 3.4e+10 L⁻¹
  Spleen below the rib cage after treatment: 0.5 cm
[3]
  Bone marrow myeloblast after treatment: 4%
  Bone marrow promyelocyte after treatment: 6%
[4]
  Lymphocyte after treatment: 19%
  Monocyte after treatment: 1%
  Neutrophil after treatment: 80%
  Promyelocytes in blood after treatment: not detected
[5]
  WBC after TPA treatment: 2.2e+09 L⁻¹
  platelet after TPA treatment: 2.23e+11 L⁻¹
[6]
  Hb after TPA treatment: 32 g/L
  platelet after TPA treatment: 5.7e+10 L⁻¹
[7]
  Hb after treatment: 96 g/L
  WBC after treatment: 2e+09 L⁻¹
  platelet after treatment: 1.12e+11 L⁻¹
[8]
  myeloblast+promyelocyte: 4%
  myelocyte: 5%
[9]
  clinical remission in bone marrow parameters: all achieved clinical remission in bone marrow parameters in a short time
  duration of clinical remission: over 6 months
Subjects 1-5
  bone marrow suppression, infection or bleeding: no bone marrow suppression, nor infection or bleeding
